{
  "source": "patent US11524950B2",
  "about": "“Treatment of immune-related and inflammatory diseases” (Celgene Corporation, priority 2012, dated 2022)",
  "assay_type_in_all_cases": "cell-based, human",
  "key": {"CD19+ B cells": {"test_system": "CD19+ B cells", "test": "B cell differentiation assay: CD20/CD38 phenotyping by flow cytometry", "details": "for CD20−CD38++ plasmablasts/plasma cells, % / CD20+CD38− activated B cells, % / CD20+CD38+ intermediated cells, %: 3 donors; for plasmablast population (CD20-CD38+): day 7, DMSO control 30.4%", "description": "Differentiated B cells (see section 8.2.3) were harvested, counted, and aliquoted at about 1×10^6 cells or less per 4 mL tube. The cells were washed 1× with stain buffer. Next, the cells then were blocked with 10% human serum/PBS for 20-30 minutes. Following blocking, the cells were centrifuged for 5 minutes at 1200 rpm and supernatants discarded. In the 100 μL of remaining buffer, 20 μL of various BD Pharmigen flow antibodies were added according to experimental design. The cells were stained for 20-30 minutes at 4° C. Then the cells were washed 2× with stain buffer and supernatants discarded. Next, 500 μL of stain buffer or PBS was added to the tubes. The samples were immediately analyzed or put at 4° C. overnight. Cells were stained with mouse anti-human CD20 and CD38, CD19 and CD27, or respective isotype controls. All samples were analyzed using a FACSCanto flow cytometer, FACSDiva analysis software (BD Bioscience), and FlowJo Analysis software.\n(§1) Immunophenotyping For Flow Cytometric Analysis: Cells were stained using multicolor direct immunofluorescence stain for flow cytometric analysis. Surface staining was performed before cell fixation and permeabilization. Cells (50 μl; 1×10^6 cells/ml in washing buffer, 2% FBS with 0.1% NaN3 in PBS) were used for each staining. The cells were stained with isotype control mAb ([…]) and multicolor FITC-conjugated anti-CD20 mAb and PE-conjugated anti-CD38 mAb, or PerCP-Cy5.5 conjugated anti-CD44 mAb, PE-conjugated anti-CD83 mAb were used for day 4 activated B cells (CD20+CD38-cells), and day 4 PBs and day 7 PBs (CD20-CD38+), and other staining, analyzed by flow cytometry as per manufacturer's instructions. The intracellular staining of transcription factor proteins (BCL-6, IRF-4, BLIMP-1, PAX-5 and XBP-1) and IgJ was performed according to the manufacturer's recommendations."}, "[1]": {"test_system": "IRF4, BLIMP1, XBP1, PAX5, IgJ", "test": "B and plasma cell transcription factor gene expression (RT-PCR), normal B cell differentiation culture", "description": "Differentiated B cells (see section 8.2.3) were harvested for total ribonucleic acid (RNA) preparation with a Qiacube RNA extraction instrument (Qiagen, Valencia, Calif.) using QIAGEN RNeasy mini spin-column kits. Purified RNA was reverse transcribed into cDNA with thermal cycler [MJ Research; Inc., St. Bruno, Quebec, Canada) using a reverse-transcriptase kit (Applied Biosystems). The gene expression assay was carried out using 7500 RT-PCR system (Applied Biosystems) in triplicate. A glyceraldehyde 3-phosphate dehydrogenase gene expression assay control was run for each sample and used as a normalization control. For each gene, samples within each experiment were normalized to 0.1% DMSO treatment only for that particular time point."}, "CD44": {"test_system": "CD44", "test": "CD44 expression in B cell differentiation culture (flow cytometry)", "details": "Day 7; for percentage of CD20high/CD44high cells: DMSO 22.2%", "description": "as §1, with “recommendations. Flow cytometric analysis was performed with a FACSCanto using FACSDiva 6 (BD Biosciences). For data analysis, Flowjo (Tree Star) software was used.” for “recommendations.”\nUsing the same B cells in vitro differentiation system, the activity of the test compound on CD44 and CD83 expression in B cell differentiation was further investigated. Multicolor FITC-conjugated anti-CD20 mAb, PerCP Cy5.5-conjugated anti-CD44 mAb and PE-conjugated anti-CD83 mAb are used for day 4 and day 7 cells. The effect of the test compound was evaluated from 3 separate experiments representative of 3 donors."}, "IgJ": {"test_system": "IgJ", "test": "Ig J chain intracellular staining in B cell differentiation culture", "description": "as §1, with “recommendations. Flow cytometric analysis was performed with a FACSCanto using FACSDiva 6 (BD Biosciences). For data analysis, Flowjo (Tree Star) software was used.” for “recommendations.”\nHigh level IgJ chain expression in rheumatoid arthritis (RA) patients predicts lack of response to rituximab."}, "BLIMP-1, XBP-1, and IgJ": {"test_system": "BLIMP-1, XBP-1, and IgJ", "test": "Plasmablast lineage factor gene expression (qRT-PCR), SLE patient PBMC", "details": "20 nM, n=3"}},
  "data": [
    {"smiles": "O=C1CC[C@H](N2Cc3c(OCc4ccc(CN5CCOCC5)cc4)cccc3C2=O)C(=O)N1", "note": "[Test compound, (S)-3-[4-(4-morphlin-4-ylmethylbenzyloxy)-1-oxo-1,3-dihydro-isoindo-2-yl]piperidine-2,6-dione]", "values": [
      {"measurement": "percentage of CD20+CD38- activated B cells", "setting": "CD19+ B cells", "result": "increased"},
      {"measurement": "percentage of CD20-CD38+ plasmablasts", "setting": "CD19+ B cells", "result": "dose-dependently reduced"},
      {"measurement": "percentage of large size cells (gate p2)", "setting": "CD19+ B cells; Day 4, 2 nM, DMSO 35.5%", "result": 31.2, "unit": "%"},
      {"measurement": "CD20−CD38++ plasmablasts/plasma cells, %", "setting": "CD19+ B cells; Day 4, 20 nM, DMSO 25.9 ± 2.4", "result": "4.8 ± 2.3", "unit": "%"},
      {"measurement": "CD20−CD38++ plasmablasts/plasma cells, %", "setting": "CD19+ B cells; Day 4, 20 nM, DMSO 25.9 ± 2.4, listed as test compound", "result": 4.8, "unit": "%"},
      {"measurement": "CD20+CD38− activated B cells, %", "setting": "CD19+ B cells; Day 4, 20 nM, DMSO 42.1 ± 1.5", "result": "57.9 ± 11.5", "unit": "%"},
      {"measurement": "CD20+CD38− activated B cells, %", "setting": "CD19+ B cells; Day 4, 20 nM, DMSO 42.1 ± 1.5, listed as test compound", "result": 57.9, "unit": "%"},
      {"measurement": "percentage of large size cells (gate p2)", "setting": "CD19+ B cells; Day 4, 20 nM, DMSO 35.5%", "result": 23.1, "unit": "%"},
      {"measurement": "percentage of large size cells (gate p2)", "setting": "CD19+ B cells; Day 4, 200 nM, DMSO 35.5%", "result": 20.4, "unit": "%"},
      {"measurement": "CD20+CD38+ intermediated cells, %", "setting": "CD19+ B cells; Day 4, DMSO 14.7 ± 3.1", "result": "18.3 ± 5.5", "unit": "%"},
      {"measurement": "percentage of large size cells (gate p2)", "setting": "CD19+ B cells; Day 7, 2 nM, DMSO 34.9%", "result": 34.9, "unit": "%"},
      {"measurement": "CD20+CD38− activated B cells, %", "setting": "CD19+ B cells; Day 7, 20 nM, DMSO 12.5 ± 5.7", "result": "50.5 ± 8.6", "unit": "%"},
      {"measurement": "CD20+CD38− activated B cells, %", "setting": "CD19+ B cells; Day 7, 20 nM, DMSO 12.5 ± 5.7, listed as test compound", "result": 50.5, "unit": "%"},
      {"measurement": "CD20−CD38++ plasmablasts/plasma cells, %", "setting": "CD19+ B cells; Day 7, 20 nM, DMSO 54.8 ± 5.0", "result": "9.7 ± 5.4", "unit": "%"},
      {"measurement": "CD20−CD38++ plasmablasts/plasma cells, %", "setting": "CD19+ B cells; Day 7, 20 nM, DMSO 54.8 ± 5.0, listed as test compound", "result": 9.7, "unit": "%"},
      {"measurement": "percentage of large size cells (gate p2)", "setting": "CD19+ B cells; Day 7, 20 nM, DMSO 34.9%", "result": 19.9, "unit": "%"},
      {"measurement": "percentage of large size cells (gate p2)", "setting": "CD19+ B cells; Day 7, 200 nM, DMSO 34.9%", "result": 11.94, "unit": "%"},
      {"measurement": "CD20+CD38+ intermediated cells, %", "setting": "CD19+ B cells; Day 7, DMSO 22.8 ± 5.1", "result": "23 ± 7.7", "unit": "%"},
      {"measurement": "plasmablast population (CD20-CD38+)", "setting": "CD19+ B cells; 2 nM", "result": 27.3, "unit": "%"},
      {"measurement": "plasmablast population (CD20-CD38+)", "setting": "CD19+ B cells; 20 nM", "result": 2.1, "unit": "%"},
      {"measurement": "plasmablast population (CD20-CD38+)", "setting": "CD19+ B cells; 200 nM", "result": 0.4, "unit": "%"},
      {"measurement": "large size cell population (gate p2)", "setting": "CD19+ B cells; normal B cell differentiation assay", "result": "dose-dependently depleted"},
      {"measurement": "B cell transcription factor PAX5", "setting": "[1]", "result": "enhanced"},
      {"measurement": "expression of plasma cell transcription factor BLIMP1", "setting": "[1]", "result": "dose-dependently inhibited"},
      {"measurement": "expression of plasma cell transcription factor RF4", "setting": "[1]", "result": "dose-dependently inhibited"},
      {"measurement": "expression of plasma cell transcription factor XBP1", "setting": "[1]", "result": "dose-dependently inhibited"},
      {"measurement": "BLIMP-1 gene expression", "setting": "[1]; day 7, 20 nM, qRT-PCR", "result": "14.3 % of control"},
      {"measurement": "IRF-4 gene expression", "setting": "[1]; day 7, 20 nM, qRT-PCR", "result": "20.5 % of control"},
      {"measurement": "IgJ gene expression", "setting": "[1]; day 7, 20 nM, qRT-PCR", "result": "31.5 % of control"},
      {"measurement": "XBP-1 gene expression", "setting": "[1]; day 7, 20 nM, qRT-PCR", "result": "15.1 % of control"},
      {"measurement": "CD44 mean fluorescence intensity (MFI)", "setting": "CD44", "result": "dose-dependently and significantly decreased"},
      {"measurement": "percentage of CD20high/CD44high cells", "setting": "CD44; 2 nM", "result": 18.4, "unit": "%"},
      {"measurement": "percentage of CD20high/CD44high cells", "setting": "CD44; 20 nM", "result": 10.1, "unit": "%"},
      {"measurement": "percentage of CD20high/CD44high cells", "setting": "CD44; 200 nM", "result": 6.6, "unit": "%"},
      {"measurement": "MFI of IgJ within the positive cells", "setting": "IgJ", "result": "decreased"},
      {"measurement": "number of IgJ-positive cells", "setting": "IgJ; Day 4, 20 nM, DMSO 13.1%±1.5%", "result": 8.4, "unit": "%"},
      {"measurement": "number of IgJ-positive cells", "setting": "IgJ; Day 4, 200 nM, DMSO 13.1%±1.5%", "result": 5.4, "unit": "%"},
      {"measurement": "Ig J chain expression", "setting": "IgJ; Day 4 B cell differentiation cultures, three donors", "result": "dose-dependently and significantly reduced"},
      {"measurement": "number of IgJ-positive cells", "setting": "IgJ; Day 7, 20 nM, DMSO 14.4%±4.3", "result": 13.2, "unit": "%"},
      {"measurement": "number of IgJ-positive cells", "setting": "IgJ; Day 7, 200 nM, DMSO 14.4%±4.3", "result": 7.2, "unit": "%"},
      {"measurement": "BLIMP-1 gene expression", "setting": "BLIMP-1, XBP-1, and IgJ", "result": "52.8 % of control"},
      {"measurement": "IgJ gene expression", "setting": "BLIMP-1, XBP-1, and IgJ", "result": "13.6 % of control"},
      {"measurement": "XBP-1 gene expression", "setting": "BLIMP-1, XBP-1, and IgJ", "result": "49.2 % of control"}
    ]}
  ]
}
